The values that follow come from article PMC3880318, “Green Tea and One of Its Constituents, Epigallocatechine-3-gallate, Are Potent Inhibitors of Human 11β-hydroxysteroid Dehydrogenase Type 1” (PLoS ONE, 2014).

Experiment [1] has as its target T1, human microsomal 11β-HSD1 (Homo sapiens, UniProt P28845). The experiment is described as follows: Inhibition of cortisone reduction (11β-HSD1 reductase activity) in human liver microsomes, cortisol quantified by HPLC. As to conditions: for IC50: IC50, inhibition of cortisone reduction. In general terms: Liver microsomes are vesicles of endoplasmic reticulum, rich in cytochrome P450 enzymes.
Procedure: (§1) In terms of 11β-HSD1 reductase activity, inhibition analysis was performed as follows: 50 µl of tea extract were added to a mixture containing 400 µM cortisone, 0.8 mM NADPH solution in 100 mM phosphate buffer pH 7.4. […] The total assay volume was 250 µl.
(§2) The reaction was stopped by adding 250 µl ice-cold ethylacetate and vortexing, followed by a 30 sec centrifugation at 13,000 RPM in a microcentrifuge. The organic phase was separated and the aqueous phase extracted two more times with 250 µl ethylacetate. The ethylacetate phases were combined and the solvent was removed in a SpeedVac (ThermoSavant). The resulting residue was dissolved in 150 µl methanol-water (58∶42, v/v) and used for metabolite quantification by HPLC.
(§3) Product yield was quantified by peak integration of the cortisone and cortisol peaks, respectively.
(§4) The data obtained were plotted as substrate-velocity curves and analyzed by nonlinear-regression.

Experiment [2] deals with T2, purified 11β-HSD1 (Homo sapiens, UniProt P28845).
T2 construct: from tissue; host or cells: human liver
T2 sequence (P28845 whole entry): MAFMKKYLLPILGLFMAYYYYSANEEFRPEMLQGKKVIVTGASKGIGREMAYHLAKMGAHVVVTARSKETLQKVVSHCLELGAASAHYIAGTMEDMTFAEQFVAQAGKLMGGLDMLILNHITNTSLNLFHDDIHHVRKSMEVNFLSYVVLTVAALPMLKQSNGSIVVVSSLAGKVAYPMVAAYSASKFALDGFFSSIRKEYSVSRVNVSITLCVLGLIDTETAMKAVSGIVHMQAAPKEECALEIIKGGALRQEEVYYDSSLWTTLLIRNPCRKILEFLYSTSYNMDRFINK
The experiment is described as follows: Inhibition of cortisone reduction by purified human 11β-HSD1. It is filed as biochemical. How it is done:
The total assay volume was 250 µl.

Experiment [3] concerns the target T3, 11β-HSD1 in human liver microsomes (Homo sapiens, UniProt P28845).
T3 construct: The reaction was started by adding 5 µl of human liver microsomes (218 µg protein); from tissue; host or cells: human liver (microsomal fraction)
The experiment is described as follows: Inhibition of cortisol oxidation (11β-HSD1 dehydrogenase activity) in human liver microsomes, HPLC. Format: biochemical. As to conditions: pH 9.0, NADP. How it is done:
Here, the incubation time was 60 min at 37°C in a 100 mM phosphate buffer pH 9.0.

Experiment [4] concerns the target T1, human microsomal 11β-HSD1. Put plainly: biochemical.
Procedure: as §1, §2, §3, §4
Experiment [5] addresses T2, purified 11β-HSD1. Put plainly: Western Blot analysis for EGCG-induced 11β-HSD1 aggregate formation. As to conditions: preincubation 3 h at 37°C, up to 100 µM. How it is done: To exclude EGCG-induced 11β-HSD1 aggregate formation, purified 11β-HSD1 (2.14 µg) was preincubated with 25–100 µM EGCG (3 h at 37°C) and then prepared for sodium dodecyl sulfate polyacrylamide gel electrophoresis (SDS-PAGE) according to the manufacturer's protocol. As a control, the same volume of untreated purified protein was loaded onto the parallel lane.
The resolved proteins were transferred to nitrocellulose membranes. After blocking the membrane for 1 h at RT with 5% non-fat dry milkpowder in PBS-buffer, the blocking solution was replaced by the primary antibody at a 1∶2,000 dilution and the membrane was incubated at 4°C for about 16 h. Primary and secondary antibodies were diluted in PBS containing 2.5% non-fat dry milkpowder. The membrane was washed three times and then the corresponding secondary antibody was added at a dilution of 1∶10,000. After a 1.5 h incubation at RT the membrane was washed three times and the specific Western blot signals of 11β-HSD1 were detected by the ECL Western Blotting System according to the manufacturer's instructions.
For orientation: In western blotting, separated proteins are transferred to a membrane and probed.

The mark [6] stands for this setting: read-out: inhibition of cortisone reduction.

As a reminder, the inhibition is the change of the read-out against control, counted positive when it falls. What is called Ki is the equilibrium dissociation constant of an inhibitor or competing ligand from its target. By IC50 is commonly meant the midpoint of a concentration-inhibition curve. A high value points to weaker potency in that assay.

Structures are written as SMILES. Several values for one entry are separate records, joined by “and”; a condition that tells them apart may be missing. Identical values can stand only once. Entries after “also recorded” stand apart in the source; their conditions may differ. Like-named read-outs stand apart in the source and are kept apart here.

T1 sequence (P28845 whole entry): as above
T3 sequence (P28845 whole entry): as above

In the case of `Oc1cc(O)c2c(c1)O[C@H](c1cc(O)c(O)c(O)c1)[C@H](O)C2` [EGC, (−)-epigallocatechin], in experiment [1] (setting [6]), the inhibition at 200 µM is ~25%.
With `O=C(O[C@@H]1Cc2c(O)cc(O)cc2O[C@@H]1c1cc(O)c(O)c(O)c1)c1cc(O)c(O)c(O)c1` [EGCG, (−)-epigallocatechin-3-gallate], the type of inhibition result in experiment [2] (purified 11β-HSD1, with respect to cortisone) is on record as “mixed inhibition; also recorded: mixed mode”; in experiment [1] (human liver microsomes, with respect to cortisone) it was “mixed inhibition”. Moreover, the Ki was 20.9 µM in experiment [2] (purified human 11β-HSD1, read-out: Ki (estimated by Dixon-plot) on cortisone reduction); 18.7 µM in experiment [2] (purified human 11β-HSD1, read-out: Ki (non-linear regression) on cortisone reduction); 22.7 µM and 17.8 µM in experiment [4]. Besides, the IC50 in experiment [3] worked out at 131 µM; in experiment [1] (human liver microsomes, freshly prepared solution) it was 58 µM; in experiment [1] (stored solution, human liver microsomes, aqueous solution stored at −20°C for one week), 26.9 µM. Further, the protein aggregate formation result in experiment [5] was “did not induce protein aggregate formation”. In experiment [1] (setting [6]), the inhibition at 100 µM is ~75%.
In the case of `Oc1cc(O)c2c(c1)O[C@@H](c1cc(O)c(O)c(O)c1)[C@H](O)C2` [GC, (−)-gallocatechin], the inhibition at 100 µM in experiment [1] (setting [6]) is ~53%.
As for `OO` [hydrogen peroxide, reference compound], the “influence on cortisol production” value in experiment [2] (up to 300 µM, purified human 11β-HSD1) is “No 11β-HSD1 inhibition”; in experiment [1] (up to 300 µM, human liver microsomes), “No 11β-HSD1 inhibition”.
